In ChEMBL document CHEMBL5113554, “Dactylosporolides: Glycosylated Macrolides from Dactylosporangium fulvum” (J Nat Prod, 2022):
pIC50: −log10 of the molar value.

Assays:
[1] = test system: Plasmodium falciparum; assay: Antiparasitic activity against Plasmodium falciparum 3D7 infected in erythrocytes assessed as inhibition of parasite growth at 50 uM incubated for 48 hrs by SYBR Green I dye based fluorescence assay relative to control; assay type: functional; conditions: 3D7, Erythrocyte
[2] = test system: Plasmodium falciparum; assay: Antiparasitic activity against Plasmodium falciparum 3D7 infected in erythrocytes assessed as parasite growth inhibition incubated for 48 hrs by SYBR Green I dye based fluorescence assay; assay type: functional, organism-based; conditions: 3D7, Erythrocyte

**Q.** How did the inhibition at 50 µM [1] turn out when CCN(CC)CCCC(C)Nc1ccnc2cc(Cl)ccc12 (configuration not stated) [CHLOROQUINE] was run?
**A.** Its inhibition at 50 µM is 100%.

**Q.** What does the source list for CO[C@@H]1C[C@H](O[C@H]2C[C@@H]3C[C@H](O)[C@@H](C)[C@](O)(C[C@@H](O)CCCC(=O)O[C@H](C[C@@H](O)[C@H](C)[C@@H](O)[C@@H](C)[C@H](CC(C)C)O[C@H]4CC[C@H](O[C@H]5C[C@@H](O)[C@H](O[C@H]6C[C@@H](O)[C@H](O)[C@@H](C)O6)[C@@H](C)O5)[C@@H](C)O4)[C@@H](C)/C=C/C=C/[C@@H](O)C2)O3)O[C@H](C)[C@H]1O?
**A.** inhibition at 50 µM [1]: 74.8%; pIC50 [2]: 4.49

**Q.** Which inhibition at 50 µM [1] does the source give for CO[C@H]1[C@H](O)C[C@H](O[C@H]2[C@H](O)C[C@H](O[C@H]3CC[C@H](O[C@@H](CC(C)C)[C@H](C)[C@H](O)[C@@H](C)[C@H](O)C[C@H]4OC(=O)CCC[C@H](O)C[C@]5(O)O[C@H](C[C@H](O[C@H]6C[C@@H](OC)[C@H](O)[C@@H](C)O6)C[C@H](O)/C=C/C=C/[C@@H]4C)C[C@H](O)[C@H]5C)O[C@@H]3C)O[C@@H]2C)O[C@@H]1C here?
**A.** The inhibition at 50 µM was 95.6%.

**Q.** And the pIC50 [2]?
**A.** The pIC50 was 4.80.

**Q.** How did the inhibition at 50 µM [1] turn out when CO[C@@H]1C[C@H](O[C@H]2C[C@@H]3C[C@H](O)[C@@H](C)[C@](O)(C[C@@H](O)CCCC(=O)O[C@H](C[C@@H](O)[C@H](C)[C@@H](O)[C@@H](C)[C@@H](O)CC(C)C)[C@@H](C)/C=C/C=C/[C@@H](O)C2)O3)O[C@H](C)[C@H]1O was run?
**A.** Its inhibition at 50 µM is 34%.

**Q.** What about the pIC50 [2] of the same molecule?
**A.** The pIC50 was less than 4.30.
